Where two headings read alike, the source gives them in different places.
Assays:
[1] = type: physicochemical; conditions: SGF with pepsin, pH 1.5, 37° C., 0.5 mM
[2] = type: physicochemical; conditions: DI water, 25° C., 0.5 mM
[3] = 5 μM
[4] = Plasma Stability Assay of Example A3, mouse plasma; conditions: 5 μM, 37° C., % of prodrug compound remaining
[5] = Plasma Stability Assay of Example A3, human plasma; conditions: 5 μM, 37° C., % of prodrug compound remaining

Row | Compound | Condition 1 Conversion (%) ([1]; time 1 min) | Condition 1 Conversion (%) ([1]; time 5 min) | Condition 1 Conversion (%) ([1]; time 30 min) | Mouse Plasma Compound 001 (%) ([3]; 15 min) | Mouse Plasma Compound 001 (%) ([3]; 30 min) | Mouse Plasma Compound 001 (%) ([3]; 60 min) | Mouse Plasma Compound 001 (%) ([3]; 120 min) | Mouse Plasma Compound 001 (%) ([3]; 240 min) | Mouse Plasma Prodrug (%) ([4]; 0 min) | Mouse Plasma Prodrug (%) ([4]; 15 min) | Mouse Plasma Prodrug (%) ([4]; 30 min) | Mouse Plasma Prodrug (%) ([4]; 60 min) | Mouse Plasma Prodrug (%) ([4]; 120 min) | Mouse Plasma Prodrug (%) ([4]; 240 min) | Human Plasma Prodrug (%) ([5]; 0 min) | Human Plasma Prodrug (%) ([5]; 15 min) | Human Plasma Prodrug (%) ([5]; 30 min) | Human Plasma Prodrug (%) ([5]; 60 min) | Human Plasma Prodrug (%) ([5]; 120 min) | Human Plasma Prodrug (%) ([5]; 240 min) | also measured
1 | COc1ccc([C@@]23CCC(OC(=O)C(C)(C)C)=C[C@@H]2N(C)CC3)cc1OC [Compound 309, [(3aS,7aS)-3a-(3,4-dimethoxyphenyl)-1-methyl-3,4,5,7a-tetrahydro-2H-indol-6-yl]2,2-dimethylpropanoate] | 0% | 0% | 0% | 61.7% | 63.7% | 62.6% | 63.2% | 60.9% | 100.0% | 34.6% | 24.9% | 8.2% | 0.0% | 0.0% | 100.0% | 64.5% | 41.4% | 16.5% | 3.6% | 2.0% | Condition 1 Conversion (%) ([1]; time 1 h): 0%; Condition 1 Conversion (%) ([1]; time 4 h): 0%; Condition 1 Conversion (%) ([1]; time 24 h): 0%; Condition 2 Conversion (%) ([2]; time 1 min): 0%; Condition 2 Conversion (%) ([2]; time 5 min): 0%; Condition 2 Conversion (%) ([2]; time 30 min): 0%; Condition 2 Conversion (%) ([2]; time 1 h): 0%; Condition 2 Conversion (%) ([2]; time 4 h): 0%; Condition 2 Conversion (%) ([2]; time 24 h): 0%
2 | COc1ccc([C@@]23CCC(OC(=O)C4CC4)=C[C@@H]2N(C)CC3)cc1OC [Compound 312, [(3aS,7aS)-3a-(3,4-dimethoxyphenyl)-1-methyl-3,4,5,7a-tetrahydro-2H-indol-6-yl]cyclopropanecarboxylate] | 0% | 0% | 0% | 66.1% | 70.8% | 64.4% | 61.7% | 61.5% | 100.0% | 3.5% | 1.6% | 2.2% | 2.8% | 0.8% | 100.0% | 8.1% | 6.2% | 20.9% | 10.5% | 13.8% | Condition 1 Conversion (%) ([1]; time 1 h): 0%; Condition 1 Conversion (%) ([1]; time 4 h): 0%; Condition 1 Conversion (%) ([1]; time 24 h): 0%; Condition 2 Conversion (%) ([2]; time 1 min): 0%; Condition 2 Conversion (%) ([2]; time 5 min): 0%; Condition 2 Conversion (%) ([2]; time 30 min): 0%; Condition 2 Conversion (%) ([2]; time 1 h): 0%; Condition 2 Conversion (%) ([2]; time 4 h): 0%; Condition 2 Conversion (%) ([2]; time 24 h): 0%
3 | C/C=C(\C)C(=O)OC1=C[C@@H]2N(C)CC[C@]2(c2ccc(OC)c(OC)c2)CC1 [Compound 313, [(3aS,7aS)-3a-(3,4-dimethoxyphenyl)-1-methyl-3,4,5,7a-tetrahydro-2H-indol-6-yl](E)-2-methylbut-2-enoate] | 0% | 0% | 0% | 37.2% | 36.3% | 37.1% | 35.2% | 35.0% | 100.0% | 2.1% | 0.7% | 0.1% | 0.0% | 0.0% | 100.0% | 62.2% | 35.1% | 12.8% | 2.4% | 0.4% | Condition 1 Conversion (%) ([1]; time 1 h): 0%; Condition 1 Conversion (%) ([1]; time 4 h): 0%; Condition 1 Conversion (%) ([1]; time 24 h): 0%; Condition 2 Conversion (%) ([2]; time 1 min): 0%; Condition 2 Conversion (%) ([2]; time 5 min): 0%; Condition 2 Conversion (%) ([2]; time 30 min): 0%; Condition 2 Conversion (%) ([2]; time 1 h): 0%; Condition 2 Conversion (%) ([2]; time 4 h): 0%; Condition 2 Conversion (%) ([2]; time 24 h): 0%
4 | C=C(C)C(=O)OC1=C[C@@H]2N(C)CC[C@]2(c2ccc(OC)c(OC)c2)CC1 [Compound 315, [(3aS,7aS)-3a-(3,4-dimethoxyphenyl)-1-methyl-3,4,5,7a-tetrahydro-2H-indol-6-yl]-2-methylprop-2-enoate] | 0% | 0% | 0% | 60.4% | 61.9% |  | 57.3% | 55.8% | 100.0% | 5.3% | 2.4% | 1.3% | 2.0% | 1.9% | 100.0% | 16.6% | 2.3% | 0.5% | 0.2% | 0.0% | Condition 1 Conversion (%) ([1]; time 1 h): 0%; Condition 1 Conversion (%) ([1]; time 4 h): 0%; Condition 1 Conversion (%) ([1]; time 24 h): 0%; Condition 2 Conversion (%) ([2]; time 1 min): 0%; Condition 2 Conversion (%) ([2]; time 5 min): 0%; Condition 2 Conversion (%) ([2]; time 30 min): 0%; Condition 2 Conversion (%) ([2]; time 1 h): 0%; Condition 2 Conversion (%) ([2]; time 4 h): 0%; Condition 2 Conversion (%) ([2]; time 24 h): 0%
5 | COc1ccc([C@@]23CCC(OC(=O)c4ccc(C#N)cc4)=C[C@@H]2N(C)CC3)cc1OC [Compound 354, (3aS,7aS)-3a-(3,4-dimethoxyphenyl)-1-methyl-2,3,3a,4,5,7a-hexahydro-1H-indol-6-yl4-cyanobenzoate] |  |  |  | 32.79% | 32.69% | 29.45% | 27.14% | 20.12% | 100% | 5% | 7% | 5% | 4% | 0% | 100% | 93% | 72% | 42% | 13% | 1% | Mouse Plasma Compound 001 (%) ([3]; 0 min): 33.27%
6 | COc1ccc([C@@]23CCC(OC(=O)c4cccc(C(C)(C)C)c4)=C[C@@H]2N(C)CC3)cc1OC [Compound 375, (3aS,7aS)-3a-(3,4-dimethoxyphenyl)-1-methyl-2,3,3a,4,5,7a-hexahydro-1H-indol-6-yl3-(tert-butyl)benzoate] |  |  |  | 45.54% | 45.99% | 41.28% | 42.28% | 29.74% | 100% | 11% | 2% | 0% | 0% | 0% | 100% | >99% | >99% | 97% | 57% | 26% | Mouse Plasma Compound 001 (%) ([3]; 0 min): 41.82%

Reference: patent publication US20250051277A1, “DELIVERY OF THERAPEUTIC ALKALOID COMPOUNDS” (Sensorium Therapeutics, Inc., priority 2021, published 2025)
